In publication PMC11322497 (Frontiers in Pharmacology, 2024):

System: high fat diet (HFD) rabbit model of metabolic-associated steatohepatitis (MASH)
Assay: HFD rabbit study, prolonged 4-week treatment: fibrosis and inflammation markers mRNA expression
Format: in vivo, New Zealand White rabbits
Conditions: HFD rabbits, weeks 9–12, mean±SD, n=7
Description: After 1 week (W) of RD, the animals (n = 44) were randomly assigned to the following groups (Table 1B): • Control rabbits continued to receive a RD for 12 weeks and were treated with vehicle for 5 days a week (days 1–5, p.o.) during the last 4 weeks before culling (RD + 4W Veh group); • Rabbits received a HFD for 8 weeks and were culled (HFD 8W group); • Rabbits received a HFD for 12 weeks and were treated with vehicle for 5 days a week (days 1–5, p.o.) during the last 4 weeks before culling (HFD+4W Veh group); • Rabbits received a HFD for 12 weeks and were treated with GB1211 (0.3 mg/kg) for 5 days a week (days 1–5, p.o.) during the last 4 weeks before culling (HFD + 4W 0.3 mg group); • Rabbits received a HFD for 12 weeks and were treated with GB1211 (1.0 mg/kg) for 5 days a week (days 1–5, p.o.) during the last 4 weeks before culling (HFD + 4W 1.0 mg group); • Rabbits received a HFD for 12 weeks and were treated with GB1211 (5.0 mg/kg) for 5 days a week (days 1–5, p.o.) during the last 4 weeks before culling (HFD + 4W 5.0 mg group).
TRIzol reagent (Life Technologies, Paisley, United Kingdom) and/or RNeasy Mini Kit (Qiagen, Hilden, Germany) were used to isolate total RNA from rabbit liver specimens. RNA concentration and quality were measured using a Nanodrop ND-1000 (Thermo Fisher Scientific) at 260 nm and 280 nm. The OD 260/280 absorbance ratios were between 2.0 and 2.1 for all samples, to confirm RNA integrity and purification. cDNA synthesis was carried out using the iScript™ cDNA Synthesis Kit (Bio-Rad Laboratories, Hercules, CA), with 100 ng of mRNA in 20 µL reaction volume in accordance with the following protocol: 5 min at 25°C, 20 min at 46°C and 5 min at 85°C, followed by refrigeration at 4°C.
Semi-quantitative real-time RT-PCR (qRT-PCR) amplification and detection was performed with SsoAdvanced™ universal SYBR® Supermix and a CFX96 Two-Color Real-Time PCR Detection System (both Bio-Rad Laboratories) with the following thermal cycler conditions: 40 cycles at 95°C for 15 s and 60°C for 1 min. Specific PCR primers for rabbit target genes were designed on sequences available at the National Center for Biotechnology Information GenBank (http://www.ncbi.nlm.nih.gov) or Ensemble Genome (http://www.ensembl.org).
The 18S ribosomal RNA subunit was quantified with a predeveloped assay (Hs99999901_s1, Life Technologies) and used as the housekeeping gene for the relative quantitation of the target genes based on the comparative threshold cycle (Ct) 2^−ΔΔCt method ([Livak and Schmittgen, 2001]), with some modifications. In detail, we used the vehicle control groups as the calibrator in each analysis, so that the calculations would provide the fold-change of the other groups relative to controls.

OC[C@H]1O[C@H](Sc2cncc(Br)c2)[C@H](O)[C@@H](n2cc(-c3cc(F)c(F)c(F)c3)nn2)[C@H]1O [selvigaltin]
CD4 liver mRNA expression (0.3 mg/kg p.o.): 1.96 ± 0.51 fold-change vs. RD+Veh | COL1A1 liver mRNA expression (0.3 mg/kg p.o.): 45.14 ± 43.26 fold-change vs. RD+Veh | COL3A1 liver mRNA expression (0.3 mg/kg p.o.): 12.38 ± 9.89 fold-change vs. RD+Veh | COX-2 liver mRNA expression (0.3 mg/kg p.o.): 8.60 ± 4.94 fold-change vs. RD+Veh | EDN1 liver mRNA expression (0.3 mg/kg p.o.): 1.08 ± 0.33 fold-change vs. RD+Veh | EDNRA liver mRNA expression (0.3 mg/kg p.o.): 3.66 ± 2.05 fold-change vs. RD+Veh | EDNRB liver mRNA expression (0.3 mg/kg p.o.): 1.60 ± 0.42 fold-change vs. RD+Veh | FN1 liver mRNA expression (0.3 mg/kg p.o.): 1.79 ± 0.76 fold-change vs. RD+Veh | FOXP3 liver mRNA expression (0.3 mg/kg p.o.): 2.85 ± 1.40 fold-change vs. RD+Veh | IL1β liver mRNA expression (0.3 mg/kg p.o.): 1.33 ± 0.37 fold-change vs. RD+Veh | IL2 liver mRNA expression (0.3 mg/kg p.o.): 2.98 ± 1.16 fold-change vs. RD+Veh | IL6 liver mRNA expression (0.3 mg/kg p.o.): 2.43 ± 1.89 fold-change vs. RD+Veh | LGALS3 liver mRNA expression (0.3 mg/kg p.o.): 63.90 ± 24.46 fold-change vs. RD+Veh | MCP1 liver mRNA expression (0.3 mg/kg p.o.): 7.70 ± 6.93 fold-change vs. RD+Veh | PAI-1 liver mRNA expression (0.3 mg/kg p.o.): 4.91 ± 1.83 fold-change vs. RD+Veh | RAGE liver mRNA expression (0.3 mg/kg p.o.): 1.99 ± 1.10 fold-change vs. RD+Veh | SNAI1 liver mRNA expression (0.3 mg/kg p.o.): 2.05 ± 2.05 fold-change vs. RD+Veh | SNAI2 liver mRNA expression (0.3 mg/kg p.o.): 2.28 ± 1.03 fold-change vs. RD+Veh | TGFβ1 liver mRNA expression (0.3 mg/kg p.o.): 4.06 ± 1.62 fold-change vs. RD+Veh | TGFβ3 liver mRNA expression (0.3 mg/kg p.o.): 1.73 ± 0.80 fold-change vs. RD+Veh | TLR4 liver mRNA expression (0.3 mg/kg p.o.): 3.89 ± 1.45 fold-change vs. RD+Veh | TNFα liver mRNA expression (0.3 mg/kg p.o.): 4.39 ± 0.96 fold-change vs. RD+Veh | αSMA liver mRNA expression (0.3 mg/kg p.o.): 4.64 ± 4.05 fold-change vs. RD+Veh | CD4 liver mRNA expression (1.0 mg/kg p.o.): 1.33 ± 0.66 fold-change vs. RD+Veh | COL1A1 liver mRNA expression (1.0 mg/kg p.o.): 9.00 ± 6.03 fold-change vs. RD+Veh | COL3A1 liver mRNA expression (1.0 mg/kg p.o.): 3.49 ± 2.11 fold-change vs. RD+Veh | COX-2 liver mRNA expression (1.0 mg/kg p.o.): 6.14 ± 3.84 fold-change vs. RD+Veh | EDN1 liver mRNA expression (1.0 mg/kg p.o.): 0.99 ± 0.28 fold-change vs. RD+Veh | EDNRA liver mRNA expression (1.0 mg/kg p.o.): 2.13 ± 1.20 fold-change vs. RD+Veh | EDNRB liver mRNA expression (1.0 mg/kg p.o.): 1.58 ± 0.31 fold-change vs. RD+Veh | FN1 liver mRNA expression (1.0 mg/kg p.o.): 1.06 ± 0.22 fold-change vs. RD+Veh | FOXP3 liver mRNA expression (1.0 mg/kg p.o.): 1.39 ± 0.43 fold-change vs. RD+Veh | IL1β liver mRNA expression (1.0 mg/kg p.o.): 1.18 ± 0.45 fold-change vs. RD+Veh | IL2 liver mRNA expression (1.0 mg/kg p.o.): 1.85 ± 1.16 fold-change vs. RD+Veh | IL6 liver mRNA expression (1.0 mg/kg p.o.): 0.58 ± 0.22 fold-change vs. RD+Veh | LGALS3 liver mRNA expression (1.0 mg/kg p.o.): 50.04 ± 15.84 fold-change vs. RD+Veh | MCP1 liver mRNA expression (1.0 mg/kg p.o.): 4.23 ± 1.50 fold-change vs. RD+Veh | PAI-1 liver mRNA expression (1.0 mg/kg p.o.): 4.93 ± 2.25 fold-change vs. RD+Veh | RAGE liver mRNA expression (1.0 mg/kg p.o.): 1.14 ± 0.36 fold-change vs. RD+Veh | SNAI1 liver mRNA expression (1.0 mg/kg p.o.): 1.30 ± 1.21 fold-change vs. RD+Veh | SNAI2 liver mRNA expression (1.0 mg/kg p.o.): 1.15 ± 0.42 fold-change vs. RD+Veh | TGFβ1 liver mRNA expression (1.0 mg/kg p.o.): 2.87 ± 1.14 fold-change vs. RD+Veh | TGFβ3 liver mRNA expression (1.0 mg/kg p.o.): 1.20 ± 0.54 fold-change vs. RD+Veh | TLR4 liver mRNA expression (1.0 mg/kg p.o.): 3.63 ± 0.90 fold-change vs. RD+Veh | TNFα liver mRNA expression (1.0 mg/kg p.o.): 3.67 ± 2.21 fold-change vs. RD+Veh | αSMA liver mRNA expression (1.0 mg/kg p.o.): 1.75 ± 1.34 fold-change vs. RD+Veh | CD4 liver mRNA expression (5.0 mg/kg p.o.): 2.60 ± 1.97 fold-change vs. RD+Veh | COL1A1 liver mRNA expression (5.0 mg/kg p.o.): 25.20 ± 23.86 fold-change vs. RD+Veh | COL3A1 liver mRNA expression (5.0 mg/kg p.o.): 7.26 ± 6.59 fold-change vs. RD+Veh | COX-2 liver mRNA expression (5.0 mg/kg p.o.): 13.87 ± 22.12 fold-change vs. RD+Veh | EDN1 liver mRNA expression (5.0 mg/kg p.o.): 1.09 ± 0.51 fold-change vs. RD+Veh | EDNRA liver mRNA expression (5.0 mg/kg p.o.): 3.04 ± 2.38 fold-change vs. RD+Veh | EDNRB liver mRNA expression (5.0 mg/kg p.o.): 2.49 ± 2.19 fold-change vs. RD+Veh | FN1 liver mRNA expression (5.0 mg/kg p.o.): 1.51 ± 0.74 fold-change vs. RD+Veh | FOXP3 liver mRNA expression (5.0 mg/kg p.o.): 3.57 ± 1.87 fold-change vs. RD+Veh | IL1β liver mRNA expression (5.0 mg/kg p.o.): 1.32 ± 0.62 fold-change vs. RD+Veh | IL2 liver mRNA expression (5.0 mg/kg p.o.): 3.33 ± 2.66 fold-change vs. RD+Veh | IL6 liver mRNA expression (5.0 mg/kg p.o.): 1.59 ± 1.33 fold-change vs. RD+Veh | LGALS3 liver mRNA expression (5.0 mg/kg p.o.): 67.63 ± 53.87 fold-change vs. RD+Veh | MCP1 liver mRNA expression (5.0 mg/kg p.o.): 5.47 ± 2.52 fold-change vs. RD+Veh | PAI-1 liver mRNA expression (5.0 mg/kg p.o.): 5.06 ± 3.07 fold-change vs. RD+Veh | RAGE liver mRNA expression (5.0 mg/kg p.o.): 1.73 ± 0.67 fold-change vs. RD+Veh | SNAI1 liver mRNA expression (5.0 mg/kg p.o.): 2.32 ± 1.38 fold-change vs. RD+Veh | SNAI2 liver mRNA expression (5.0 mg/kg p.o.): 1.68 ± 0.79 fold-change vs. RD+Veh | TGFβ1 liver mRNA expression (5.0 mg/kg p.o.): 3.96 ± 2.80 fold-change vs. RD+Veh | TGFβ3 liver mRNA expression (5.0 mg/kg p.o.): 1.87 ± 0.71 fold-change vs. RD+Veh | TLR4 liver mRNA expression (5.0 mg/kg p.o.): 3.90 ± 1.30 fold-change vs. RD+Veh | TNFα liver mRNA expression (5.0 mg/kg p.o.): 3.80 ± 1.84 fold-change vs. RD+Veh | αSMA liver mRNA expression (5.0 mg/kg p.o.): 3.17 ± 2.57 fold-change vs. RD+Veh
